Data set [1] relates to photoaged females. As to the kind of experiment: Investigator efficacy: facial skin appearance parameters graded on 5-point ordinal scale. Format: in vivo, human. The note with it: longitudinal intragroup. An excerpt: (§1) The dermatologist-investigator and subjects assessed the following facial efficacy parameters: overall severity of photodamage, dryness, lack of tactile smoothness, lack of visual smoothness, lack of softness, lack of luminosity, lack of radiance, lack of firmness, poor skin texture, fine facial wrinkles, crow's feet, dyschromia, and crepey cheek skin texture. All assessments were graded on a 5-point ordinal scale (0=none, 1=minimal, 2=mild, 3=moderate, 4=severe). […] The investigator and subjects referred to baseline images (front, right and left side images) of the subjects in completing this evaluation.
(§2) Along with descriptive statistics (means, standard deviations, and percentages), investigator ordinal nonparametric data was analyzed using the Wilcoxon signed rank test and sign test for paired comparison at different time points within and between groups. Change was considered significant at a p-value of less than or equal to 0.05.
The investigator graded facial skin appearance parameters using a 5-point ordinal scale (0=none, 1=minimal, 2=mild, 3=moderate, 4=severe) at baseline (visit 1), week 4 (visit 2), and week 8 (visit 3), and week 12 (visit 4).

For data set [2], the system named is photoaged females. As to the kind of experiment: Subject overall clinical improvement from baseline, 5-point scale. Format: in vivo, human. Particulars: after 12 weeks; scale 1=much improved to 5=worse.
Excerpt: as §1

Data set [3] relates to photoaged females. Put plainly: Adverse experiences and discontinuations in the clinical study.
Excerpt: A single-site, double-blind controlled comparative study enrolled 45 photoaged females ages 35-65, Fitzpatrick skin types I-IV, with moderate wrinkling. Subjects who used facial retinoids within 3 months of screening, and/or facial alpha-hydroxy acids within 1 month were excluded. Subjects were randomized 2:1 into the following groups:
The 0.25% retinal serum was used twice weekly for week 1, then every other night for week 2, then every night for weeks 3 and 4. The Test Moisturizer (Lipid Replenishing Cream, TOPIX Pharmaceuticals, Inc, Amityville, NY) was placed on top of the retinal serum at each nightly application and every morning.
Cell 2: 15 subjects applied 0.025% tretinoin cream for 4 weeks. The 0.025% tretinoin cream was used twice weekly for the week 1, then every other night for week 2, then every night for weeks 3 and 4. Test Moisturizing cream (CeraVe Moisturizing Cream, L'Oreal, NY) was placed on top of the tretinoin cream (Ortho Dermatologies, NJ) at each application and every morning.
Data set [4] concerns photoaged females. As to the kind of experiment: Subject efficacy: self-assessed photodamage parameters, 5-point ordinal scale. Format: in vivo, human.
Excerpt: as §1, §2
Subjects assessed their skin appearance across various photodamage parameters using a 5-pointordinal scale (0=none, 1=minimal, 2=mild, 3=moderate, 4=severe) at baseline, week 4, week 8, and week 12.

Data set [5] has as its system photoaged females. On the set-up: species or system human. Particulars: in vivo. From the text: Clinical photography was captured at each office visit using visible light of the central, right, and left face with a VISIA CR43 camera system (Canfield Scientific, NJ). Noninvasive assessments for barrier function in the form of transepidermal water loss (TEWL) measurements were taken from the left face using Evaporimeter, Cyberderm, Broomall, PA
TEWL (Evaporimeter, Cyberderm, Broomall, PA) measurements were taken at baseline, week 8, and week 12. […] TEWL increase was 16% lower in the retinol group as compared to the tretinoin group.

One molecule from patent publication US12016939B2, “Skin treatment methods and compositions for transdermal delivery of active agents” (Topix Pharmaceuticals, Inc., priority 2020, dated 2024) can be followed below.

For the molecule `CC1=C(/C=C/C(C)=C/C=C/C(C)=C/C(=O)O)C(C)(C)CCC1` [tretinoin], in the data set on photoaged females [1] (week 4), the “luminosity, investigator” value was “statistically significant improvement”; the “radiance, investigator” value is listed as “statistically significant improvement”; the “softness, investigator” value was “statistically significant improvement”; the “tactile smoothness, investigator” value is reported as “statistically significant improvement”. In addition, in the data set with photoaged females [1] (week 4, retinol P=0.031), the “visual smoothness, investigator” value is given as “no significance”. Besides, in the data set on photoaged females [1] (week 8), the “firmness, investigator” value was “statistical significance”; the “luminosity, investigator” value was “statistical significance”; the “overall photoaging appearance, investigator” value is on record as “statistical significance”; the “radiance, investigator” value is reported as “statistical significance”. Further, in the data set with photoaged females [1] (week 8), the “skin texture, investigator” value was “statistical significance”; the “softness, investigator” value is given as “statistical significance”; the “tactile smoothness, investigator” value is “statistical significance”; the “visual smoothness, investigator” value is given as “statistical significance”. Moreover, in the data set with photoaged females [1] (week 8, retinol P<0.001), the “skin dryness, investigator” value is recorded as “not seen”. Besides, the “subject overall clinical improvement from baseline, on average reported” value in the data set on photoaged females [2] was “much-improved”. The “subjects discontinued due to retinoid tolerability issues” value with photoaged females [3] (12-week study, Cell 1 30 subjects, Cell 2 15 subjects) is given as “one”. For the same molecule, the serious adverse events result in the data set with photoaged females [3] (during the conduct of the study) is on record as “No serious adverse events”. For the same molecule, the “subject assessed improvement, intragroup longitudinal” value with photoaged females [4] (all time points) is “experienced improvement”. For the same molecule, the “softness, subject” value in the data set on photoaged females [4] (week 8, intragroup, retinol serum P<0.001) is “not seen until week 8”. Further, the “most parameters, subject” value in the data set on photoaged females [4] (week 12, intragroup) is recorded as “statistical significance”. Also, the “increase in TEWL” value with photoaged females [5] (female, human, 12 weeks) was found to be 104%. For the same molecule, the “barrier damage (TEWL), intragroup” value in the data set with photoaged females [5] is “induced barrier damage”.
